The term pKi denotes −log10 of the Ki, conventionally taken in molar units.

pKi: −log10 of the molar value.

Data set [1] concerns Bleomycin (BLM) induced pulmonary fibrosis. Description: Bleomycin (BLM) induced pulmonary fibrosis rat model. It is filed as in vivo, Sprague Dawley rats. The method, then: Study Animals: The investigation involved 34 male Sprague Dawley rats (weights: 275-300 g; ages: 8 weeks; Charles River Laboratories, Quebec, Canada) randomized for equal distribution according to their body weight into four groups.
Study Methods: On Day 0, animals in Group 1 (Sham; N=5) received one intratracheal administration of the vehicle, 0.250 mL of vehicle 0.9% saline solution (FIG. 1). Animals in Groups 2 to 4 (n=9, 10, 10, respectively) received a single intratracheal instillation of 0.250 mL (5 U/kg-3.33 mg/kg) of bleomycin sulfate (Cayman Chemicals, Ann Arbor, MI) solution. From Day 1 to 10, the vehicle was administered to Groups 1, 2, and 4. […] The vehicle administration was continued to Group 1 (Sham) and Group 2 (BLM) until Day 20. […] During the treatment period, food and water were provided ad libitum to the rats. On each day, animals were monitored for behavior, general health status, and survival. Body weight and food intake were also measured.
For bleomycin, 50 mg of drug was weighed and dissolved in 12.5 mL of sterile 0.9% Saline solution was added to obtain a solution of 4 mg/mL. The vehicle was created by dissolving 50 g of glucose in 1 L of water to result in a 5% solution.
On Day 21, animals were anesthetized and instrumented. Hemodynamic parameters (systemic arterial blood pressure, heart rate, and oxygen saturation) were recorded continuously for at least 5 minutes. At the end of the recording, a blood sample was collected. After the animal was exsanguinated, the pulmonary circulation was flushed with 0.9% NaCl, and tissues (lungs, trachea, and heart) were harvested altogether from the thoracic cavity for further analysis.
Parameters Measured on Surgery Day: Cardiac activity was recorded continuously during the surgical procedure. Cardiac activity was monitored using three electrocardiographic (ECG) contact electrodes placed in a lead-I/II configuration and connected to an IsoDam8 differential amplifier. Heart rate (HR) was recorded using duplicate systems: from the ECG records (RR-intervals) and using an N-595 pulse oximeter attached to the left front paw of the animal. The heart rate values derived from the pulse oximeter were measured in beat per minutes (bpm) using cursor readings in Clampfit 10.2.0.14CA. Blood oxygen saturation (SpO2) was measured using a pulse oximeter signal attached to the left front paw of the animal.
Systemic arterial blood pressure (SAP) was monitored continuously using an intra-arterial fluid-filled catheter connected to a pressure transducer, with diastolic and systolic pressures values measured in mm Hg. Calculation of mean SAP (mSAP) and pulse pressure (PP) used the following formulas: 1−mSAP=diastolic systemic pressure+([systolic systemic pressure−diastolic systemic pressure]/3); and 2−PP=systolic systemic pressure−diastolic systemic pressure. Pulse pressure was calculated as the difference between systolic and diastolic readings.
After being harvested, the trachea was connected to the cannula of a perfusion system. The left lung was clamped while 5 mL of cold PBS solution was injected in the trachea to perform bronchoalveolar lavage to obtain fluid (BALF) of the right lobe of the lungs and was collected for further analysis (Total cell counts and cytokines measurement). Once the BALF sample was collected, it was centrifuged at 1200 rpm for 10 minutes at 4° C. The supernatant was frozen at −80° C. until cytokines analysis. The cells were then resuspended in PBS and counted with a hemocytometer.
Organ weights were expressed as relative percentages and were calculated as follows: Relative organ weight=(organ weight×100)/body weight.
Histological Preparation and Categorization: For each rat, the left lobe of the lungs was harvested, perfused and fixed with 10% neutral buffered formalin. A transversal section of the middle left lobe was cut and forwarded in 10% NBF to the Institute for Research in Immunology and Cancer (Montreal, Quebec, Canada). […]

In another data set the target is Human recombinant D2S (Homo sapiens (Human), UniProt P14416). Description: Dopamine D2S radioligand binding assay.
For the next data set, the target named is Human recombinant 5-HT1A (Homo sapiens (Human), UniProt P08908). Description: Serotonin 5HT1A radioligand binding assay.
For data set [2], the target named is Human Cortex or Human recombinant 5-HT2A (Homo sapiens (Human), UniProt P28223). Description: Serotonin 5HT2A radioligand binding assay.
Where [3] appears, read: RPI: Day 10 to 20, Day 21, vs BLM, P<0.01.
Where [4] appears, read: RPI: Day 10 to 20, Day 21, vs BLM, P<0.05.
Setting [5] is: RPT: Day 1 to 20, Day 21, vs BLM, P<0.001.
Setting [6] is: RPT: Day 1 to 20, Day 21, vs BLM, P<0.01.
[7] abbreviates: RPT: Day 1 to 20, Day 21, vs BLM, P<0.05.
Setting [8] is: all groups (RPT and RPI), Day 21.

Chain of Human recombinant D2S (P14416 other isoform, or with tags, fused parts or gaps): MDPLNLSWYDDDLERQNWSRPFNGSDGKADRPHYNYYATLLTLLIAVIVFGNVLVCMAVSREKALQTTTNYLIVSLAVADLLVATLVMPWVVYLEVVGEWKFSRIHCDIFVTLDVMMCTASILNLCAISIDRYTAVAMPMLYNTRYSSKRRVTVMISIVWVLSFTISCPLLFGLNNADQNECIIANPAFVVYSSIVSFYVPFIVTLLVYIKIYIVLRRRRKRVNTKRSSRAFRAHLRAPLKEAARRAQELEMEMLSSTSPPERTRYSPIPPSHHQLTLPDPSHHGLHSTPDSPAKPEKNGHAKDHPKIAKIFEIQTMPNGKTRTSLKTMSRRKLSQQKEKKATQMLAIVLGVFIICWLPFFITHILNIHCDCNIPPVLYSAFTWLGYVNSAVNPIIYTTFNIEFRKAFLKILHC
Chain of Human Cortex or Human recombinant 5-HT2A (P28223 whole entry, looked up): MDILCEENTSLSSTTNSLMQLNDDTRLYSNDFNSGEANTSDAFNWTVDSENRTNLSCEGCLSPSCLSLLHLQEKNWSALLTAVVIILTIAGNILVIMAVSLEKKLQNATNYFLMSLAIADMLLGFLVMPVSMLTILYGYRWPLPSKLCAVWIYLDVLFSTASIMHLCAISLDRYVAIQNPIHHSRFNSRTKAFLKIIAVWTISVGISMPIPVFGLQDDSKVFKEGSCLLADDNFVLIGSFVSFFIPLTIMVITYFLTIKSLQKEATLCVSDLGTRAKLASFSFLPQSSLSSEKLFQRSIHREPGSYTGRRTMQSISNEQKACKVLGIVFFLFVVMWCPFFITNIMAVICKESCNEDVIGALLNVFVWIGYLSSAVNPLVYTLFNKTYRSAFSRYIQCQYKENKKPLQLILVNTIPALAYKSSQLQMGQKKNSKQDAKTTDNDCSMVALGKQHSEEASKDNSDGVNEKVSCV

As to `O=C1COc2ccc(OCCCCN3CCN(c4cccc(Cl)c4Cl)CC3)cc2N1` [Compound A, 6-(4-(4-(2,3-dichlorophenyl)piperazin-1-yl)butoxy)-2H-benzo[b][1,4]oxazin-3(4H)-one], the “survival rate at Day 10” value in data set [1] (Group 3, 15 mg/kg b.i.d. gavage from Day 1 (text calls it RPI; Group 3 = RPT)) is 100%. For the same compound, the “survival rate at Day 21” value in data set [1] (RPI: 15 mg/kg b.i.d. gavage Day 10 to 20) is given as 89.5%. In data set [1] (RPI: Day 10 to 20, Day 21), the “BALF IL6” value is recorded as “numerically (RPT, RPI) reduced”; the “BALF MIP1” value is “None of the treatments statistically reversed”; the BALF total protein result was “numerical improvement reduction”; the arterial pulse pressure entry is “slightly restored”. In addition, in data set [1] (RPI: Day 10 to 20, Day 21), the blood oxygen saturation entry is given as “improved”, the cardiac output result is listed as “slightly restored” and the lung weight result is on record as “decreased”. Besides, in data set [1] (setting [3]), the “BALF IP10” value is reported as “significant reductions”, the “BALF RANTES” value was “significantly reduced” and the lung hydroxyproline concentration entry is recorded as “significant diminution”. In addition, in data set [1] (setting [4]), the “BALF MCP1” value is given as “significant decrease”, the “BALF total cell count” value is “significantly reduced” and the blood lactate levels result is “diminution”. The respiratory resistance entry in data set [1] (RPI: Day 10 to 20, Day 21, vs BLM, P=0.10) was “showed improvement”. For the same compound, the “survival rate at Day 21” value in data set [1] (RPT: 15 mg/kg b.i.d. gavage Day 1 to 20) came to 90%. In data set [1] (RPT: Day 1 to 20, Day 21), the “BALF IL6” value was “numerically (RPT, RPI) reduced”; the “BALF MCP1” value is on record as “reductions”; the “BALF MIP1” value is recorded as “slightly reduced”. In data set [1] (setting [5]), the “Ashcroft Score (H&E staining), lung parenchymal fibrotic changes” value is recorded as “significant reduction” and the “percentage of collagen disposition in the lung (Masson's trichrome staining)” value is on record as “significantly reduced”. In addition, in data set [1] (setting [6]), the “BALF IP10” value is “significant reductions”, the “BALF RANTES” value was “significantly reduced”, the blood lactate levels entry was “diminution” and the body weight entry is recorded as “significantly alleviated BLM-induced weight loss”. For the same compound, the cardiac output entry in data set [1] (setting [6]) is on record as “restored cardiac output”. In data set [1] (setting [7]), the “BALF total cell count” value is recorded as “reversal”, the BALF total protein entry is on record as “reversal”, the arterial pulse pressure result was “improved arterial pulse pressure” and the blood oxygen saturation entry was “normalization”. Further, in data set [1] (setting [7]), the lung hydroxyproline concentration entry is recorded as “significant diminution”, the lung weight entry is “significantly lower” and the respiratory resistance result is listed as “significant reduction”. Moreover, the body weight entry in data set [1] (administered from Day 10 (RPI; printed RPT), Day 21, vs BLM) was “slightly increased body weight”. Also, in data set [1] (setting [8]), the heart rate result is “relatively similar in all groups” and the systemic arterial pressure entry is reported as “no differences were noted among the groups”.
As for “6-(4-(4-(2-methoxyphenyl)piperazin-1-yl)butoxy)-2H-benzo[b][1,4]oxazin-3(-4H)-one [Compound B]”, the results for the pKi (on Human recombinant D2S; on Human recombinant 5-HT1A; in data set [2]) were 9.52, 9.19 and 6.93, respectively.

For the origin of these results see patent US12053477B2, “Methods for treating pulmonary fibrosis” (Reviva Pharmaceuticals, Inc., priority 2017, dated 2024).
